# What was measured:
# HCC78 human NSCLC cells = assay: Western blot of cleaved caspase-3 (apoptosis) in HCC78 cells; details: 3-hour drug treatment
# [1] = test system: SLC34A2-ROS dependent signaling (ROS, SHP2, STAT3, AKT, ERK1/2) in HCC78 cells; assay: Immunoblot of ROS mediated signal transduction in HCC78 cells; details: 3 hours of drug treatment
# [2] = test system: 3T3-ROS engineered tumor models (CD74-ROS, SLC34A2-ROS (L), SLC34A2-ROS (S), FIG-ROS (L), FIG-ROS (S)); assay: Panel of ROS fusion engineered 3T3-ROS xenograft tumor models; details: PO BID, all five models, nude mice
smiles,measurement,setting,value
"C[C@@H](Oc1cc(-c2cnn(C3CCNCC3)c2)cnc1N)c1c(Cl)ccc(F)c1Cl [crizotinib, 3-[(R)-1-(2,6-dichloro-3-fluoro-phenyl)-ethoxy]-5-(1-piperidin-4-yl-1H-pyrazol-4-yl)-pyridin-2-ylamine]",induction of activated caspase-3 levels,HCC78 human NSCLC cells,significant dose-dependent induction
same,"inhibition of ROS phosphorylation (activation loop) and downstream SHP2, STAT3, AKT and ERK1/2",[1],dose dependently inhibited
same,cytoreductive effect in 3T3-ROS engineered tumor models,[2],significant cytoreductive effects

# — patent US20160206608A1 (Pfizer Inc., priority 2011, published 2016)
